Data reported in patent US20120295291A1, “Method for Determining the Risk of Clopidogrel Resistance” (SIEMENS HEALTHCARE DIAGNOSTICS PRODUCTS GMBH, priority 2011, published 2012).
Like-named read-outs stand apart in the source and are kept apart here.

Tested on: thrombocytes (thrombocyte activity; ADP receptor P2Y12)
Details: for patients studied clopidogrel-resistant (closure time below cut-off after intake of clopidogrel): INNOVANCE PFA P2Y cartridges, after 300 or 600 mg clopidogrel loading dose, cut-off 106 s

For COC(=O)[C@H](c1ccccc1Cl)N1CCc2sccc2C1 [clopidogrel, methyl (S)-α-(2-chlorophenyl)-6,7-dihydrothieno[3,2-c]pyridine-5(4H)-acetate], which “relative risk of patient not responding to clopidogrel” value (Col/EPI closure time prior to intake 140 s (3.2% citrated blood), response by INNOVANCE PFA P2Y after intake in 3.8% citrated whole blood, p<0.0001) is on record?
The value was 2.64.

What about the “relative risk of patient not responding to clopidogrel” value (Col/EPI closure time prior to intake ≦140 s vs >140 s, 3.2% citrated whole blood, p<0.004) of the same compound?
Its value is 1.78.

What about the “patients studied clopidogrel-resistant (closure time below cut-off after intake of clopidogrel)” value (3.2% citrated whole blood) of the same compound?
The value was 45.8%.

What about the “patients studied clopidogrel-resistant (closure time below cut-off after intake of clopidogrel)” value (3.8% citrated whole blood) of the same compound?
Its value is 37.5%.

What about the “relative risk of patient not responding to clopidogrel” value (INNOVANCE PFA P2Y closure time prior to intake ≦59 s vs >59 s, 3.8% citrated whole blood, p<0.002) of the same compound?
Its value is 1.98.

What about the “relative risk of patient not responding to clopidogrel” value (INNOVANCE PFA P2Y closure time prior to intake ≦60 s vs >60 s, 3.2% citrated whole blood, p<0.02) of the same compound?
Its value is 1.61.

What about the “relative risk of patient not responding to clopidogrel” value (patients undergoing ASA therapy, Col/ADP closure time prior to intake ≦91 s vs >91 s, 3.2% citrated whole blood, p=0.06) of the same compound?
Its value is 1.47.
